# Experimental data from PMC3698108, “Structural and bioactive studies of terpenes and cyclopeptides from the Genus Rubia” (Chemistry Central Journal, 2013).
# Entries after “also recorded” stand apart in the source; their conditions may differ.
# Columns and labels:
# [1] = test system: Vancomycin-Resistant Enterococci; conditions: cited from earlier work; for antimicrobial activities: weaker than clinical antimicrobial drugs
# four cell lines = conditions: cited from earlier work
# STAT3 = conditions: cited from earlier work
# TRAIL-induced apoptosis = conditions: cited from earlier work
# renal aldose reductase = conditions: cited from earlier work
# glyoxalase I = conditions: cited from earlier work
# [2] = test system: human immunodeficiency virus (HIV-1) protease; parameters: method as in PMID 8759159; conditions: cited from earlier work
# P388 = conditions: cited from earlier work
# P-388 = conditions: cited from earlier work; for cytotoxicity against P-388 IC50: moderate cytotoxicity
# iNOS = test system: iNOS; parameters: method as in PMID 12808242; conditions: cited from earlier work
# [3] = test system: RAW 264.7 murine macrophages; conditions: cited from earlier work
# [4] = test system: A549, SK-OV-3, SK-MEL-2, MES-SA and HCT-15; parameters: method as in PMID 15089031; conditions: cited from earlier work
# [5] = test system: NO production from LPS-activated macrophages; parameters: method as in PMID 12762798; conditions: cited from earlier work
# platelet aggregation = test system: platelet aggregation; parameters: method as in PMID 12350148; conditions: cited from earlier work
# HT-29 = conditions: cited from earlier work
# A549, Hela and SMMC-7721 = test system: A549, Hela and SMMC-7721; parameters: method as in PMID 21973054; conditions: data not very satisfactory; cited from earlier work
# [6] = parameters: method as in PMID 20188082; conditions: mice; cited from earlier work
# HT-29, MCF-7 and HepG2 = test system: HT-29, MCF-7 and HepG2; parameters: method as in PMID 18239313; conditions: cited from earlier work
# DNA topoisomerase II = test system: DNA topoisomerase II; parameters: method as in PMID 18239313; conditions: cited from earlier work
# HL-60 cells = test system: HL-60 cells; parameters: method as in doi:10.1016/j.phytol.2012.02.014; conditions: much weaker than RA-XXIV and RA-VII; cited from earlier work
# 11 cancer cell lines = conditions: SRB assay; cited from earlier work
compound,measurement,setting,value
"C[C@H]1[C@H](C)CC[C@]2(C(=O)O)CC[C@]3(C)C(=CC[C@@H]4[C@@]5(C)CC[C@H](O)C(C)(C)[C@@H]5CC[C@]43C)[C@H]12 [Compound 11, Ursolic acid]",toxicity,[1],low toxicity
same,antimicrobial activities,[1],fairly high antimicrobial activities
same,apoptotic effects,four cell lines,markedly apoptotic effects
same,cell adhesion,four cell lines,suppress cell adhesion
same,production of VEGF and ICAM-1,four cell lines,reduce the production of VEGF and ICAM-1
same,STAT3 activation,STAT3,novel blocker of STAT3 activation
same,TRAIL-induced apoptosis,TRAIL-induced apoptosis,potentiated TRAIL-induced apoptosis
same,renal aldose reductase activity,renal aldose reductase,markedly suppressed
same,activity of glyoxalase I,glyoxalase I,enhanced the activity
same,inhibition on HIV-1 protease,[2],possess inhibition
RA-X [Compound 77],antitumour effect on P388,P388,strong antitumour effect
RA- XVIII [Compound 85],cytotoxicity against P-388,P-388; P-388,0.012 µg/mL
RA-XII [Compound 79],effects on iNOS induction,iNOS,potent effects
same,activity against NO production in LPS,[3],exhibited activity
same,antitumor activity against P388,P388,potent antitumor activity
"CC(=O)OC1CCC2(C)C(CCC3(C)C2CC=C2C4CC(C)(C)CCC4(C=O)CCC23C)C1(C)C (stereo not drawn) [Compound 15, Oleanolic aldehyde acetate]","bioactivities against A549, SK-OV-3, SK-MEL-2, MES-SA and HCT-15",[4],potent bioactivities
"CC(=O)OC[C@@]12CC[C@@]3(C)[C@H]4C(=CC[C@]3(C)[C@H]1[C@H](O)C[C@H]2C(C)C)[C@@]1(C)CCC(=O)C(C)(C)[C@@H]1C[C@@H]4O [Compound 27, Rubiarbonone C]",inhibition of NO production,[5],inhibit NO production; also recorded: inhibitory activities on NO production
same,melting point,,98 to 100 °C
"CC(C)[C@@H]1C[C@@H](O)[C@H]2[C@@]1(CO)CC[C@@]1(C)[C@H]3C(=CC[C@]21C)[C@@]1(C)CC[C@H](O)C(C)(C)[C@@H]1C[C@@H]3O [Compound 16, Rubiarbonol A]",effect on platelet aggregation at the high doses,platelet aggregation,promoted platelet aggregation
same,effect on platelet aggregation at the lower concentrations,platelet aggregation,possessed antiplatelet aggregation activity
same,inhibition of NO production,[5],inhibit NO production; also recorded: inhibitory activities on NO production
same,cytotoxicity against HT-29,HT-29,relatively strong cytotoxicity
same,melting point,,260 to 263 °C
COC(=O)CC[C@@H]1NC(=O)[C@@H](C)NC(=O)[C@@H]2Cc3ccc(O)c(c3)Oc3ccc(cc3)C[C@@H](C(=O)N2C)N(C)C(=O)[C@H](C)NC(=O)[C@H](Cc2ccc(OC)cc2)N(C)C1=O,melting point,,253 to 254 °C
"CC(=O)OC[C@@]12CC[C@@]3(C)[C@H]4C(=CC[C@]3(C)[C@H]1[C@H](O)C[C@H]2C(C)C)[C@@]1(C)CC[C@H](O[C@@H]2O[C@H](CO[C@@H]3O[C@H](CO)[C@@H](O)[C@H](O)[C@H]3O)[C@@H](O)[C@H](O)[C@H]2O)C(C)(C)[C@@H]1C[C@@H]4O [Compound 62, Rubiarboside G 28-acetate]","inhibition on A549, Hela and SMMC-7721","A549, Hela and SMMC-7721",had inhibition
Rubiarbonone A [Compound 25],effect on platelet aggregation at the high doses,platelet aggregation,promoted platelet aggregation
same,effect on platelet aggregation at the lower concentrations,platelet aggregation,possessed antiplatelet aggregation activity
"CC(C)[C@@H]1C[C@@H](O)[C@H]2[C@@]1(CO)CC[C@@]1(C)[C@H]3C(=CC[C@]21C)[C@@]1(C)C[C@@H](O)[C@H](O)C(C)(C)[C@@H]1C[C@@H]3O [Compound 21, Rubiarbonol F]",inhibition of NO production,[5],inhibit NO production; also recorded: inhibitory activities on NO production
"CC(C)[C@@H]1CC=C2[C@@]1(C)CC[C@@]1(C)[C@H]3C(=CC[C@]21C)[C@@]1(C)CC[C@H](O)C(C)(C)[C@@H]1C[C@@H]3O [Compound 55, Rubiyunnanol B]","inhibition on A549, Hela and SMMC-7721","A549, Hela and SMMC-7721",had inhibition
same,melting point,,247 to 248 °C
"COc1ccc(C[C@H]2C(=O)N[C@@H](C)C(=O)N(C)[C@H]3Cc4ccc(cc4)Oc4cc(ccc4OC)C[C@@H](C(=O)N[C@H](C)C(=O)N[C@@H](CCC(N)=O)C(=O)N2C)N(C)C3=O)cc1 [Compound 90, RA- XXIII]",cytotoxicity against P-388 IC50,P-388; P-388,160 µg/mL
RA-IX [Compound 76],antitumour effect on P388,P388,almost no antitumour activities
"CC(=O)O[C@@H]1C[C@@H](C(C)C)[C@]2(CO)CC[C@@]3(C)[C@H]4C(=CC[C@]3(C)[C@@H]12)[C@@]1(C)C=CC(=O)C(C)(C)[C@@H]1C[C@@H]4O [Compound 58, Rubiarbonone E 19-acetate]","inhibition on A549, Hela and SMMC-7721","A549, Hela and SMMC-7721",had inhibition
"CC(=O)OC[C@@]12CC[C@@]3(C)[C@H]4C(=CC[C@]3(C)[C@H]1[C@H](O)C[C@H]2C(C)C)[C@@]1(C)C[C@@H](O)[C@H](O)C(C)(C)[C@@H]1C[C@@H]4O [Compound 43, Rubianol-d]",efficacy of NO production inhibition compared with L-NMMA,[5],equivalent to L-NMMA
same,inhibition of NO production,[5],exhibited the inhibition
"CC1(C)CC[C@]2(C(=O)O)CC[C@]3(C)C(=CC[C@@H]4[C@@]5(C)CC[C@H](O)C(C)(C)[C@@H]5CC[C@]43C)[C@@H]2C1 [Compound 12, Oleanolic acid]",glucose tolerance,[6],improve glucose tolerance
same,visceral adiposity,[6],ameliorate visceral adiposity
same,toxicity,[1],low toxicity
same,antimicrobial activities,[1],fairly high antimicrobial activities
same,"cytotoxicity against HT-29, MCF-7 and HepG2","HT-29, MCF-7 and HepG2",weak cytotoxicity
same,apoptotic effects,four cell lines,markedly apoptotic effects
same,cell adhesion,four cell lines,suppress cell adhesion
same,production of VEGF and ICAM-1,four cell lines,reduce the production of VEGF and ICAM-1
same,inhibitory activity against DNA topoisomerase II compared with DNA topoisomerase I,DNA topoisomerase II,selective inhibitory activity
same,renal aldose reductase activity,renal aldose reductase,markedly suppressed
same,activity of glyoxalase I,glyoxalase I,enhanced the activity
"CC(C)[C@@H]1C[C@@H](O)[C@H]2[C@@]1(C)CC[C@@]1(C)[C@H]3C(=CC[C@]21C)[C@@]1(C)CC[C@H](O)C(C)(C)[C@@H]1C[C@@H]3O [Compound 17, Rubiarbonol B]",inhibition against arachidonic acid-induced and collagen-induced platelet aggregation,"platelet aggregation; at 150 μM, among compounds 16, 17 and 25",most potent inhibition
"CC(C)[C@@H]1C[C@@H](O)[C@H]2[C@@]1(C)CC[C@@]1(C)C3=CC[C@H]4C(C)(C)[C@@H](O)CC[C@]4(C)C3=CC[C@]21C [Compound 54, Rubiyunnanol A]","inhibition on A549, Hela and SMMC-7721","A549, Hela and SMMC-7721",had inhibition
RA- XXII [Compound 89],relative cytotoxicity against P388,P-388; RA-VII (74) as reference,less cytotoxic than 88
O-seco-RA-XXIV [Compound 109],cytotoxic effects on HL-60 cells,HL-60 cells,exhibited cytotoxic effects
RA-I [Compound 66],activity against NO production in LPS,[3],exhibited activity
"COc1ccc(C[C@H]2C(=O)N[C@@H](C)C(=O)N(C)[C@H]3Cc4ccc(cc4)Oc4cc(ccc4O)C[C@@H](C(=O)N[C@H](C)C(=O)N[C@@H](CCC(N)=O)C(=O)N2C)N(C)C3=O)cc1 [Compound 91, RA- XXIV]",activity against NO production in LPS,[3],exhibited activity
same,cytotoxicity against P-388 IC50,P-388; P-388,480 µg/mL
"COc1ccc(C[C@H]2C(=O)N[C@@H](C)C(=O)N(C)[C@H]3Cc4ccc(cc4)Oc4cc(ccc4OC)C[C@@H](C(=O)N[C@H](C)C(=O)N[C@@H](C)C(=O)N2C)N(C)C3=O)cc1 [Compound 104, RA-700]",activities against P388,P388,medium activities
RC-18 [Compound 105],activities against P388,P388,medium activities
"CC(=O)OC[C@@]12CC[C@@]3(C)[C@H]4C(=CC[C@]3(C)[C@H]1[C@H](O)C[C@H]2C(C)C)[C@@]1(C)CC[C@H](O)C(C)(C)[C@@H]1C[C@@H]4O [Compound 42, Rubianol-c]",inhibition of NO production,[5],inhibit NO production; also recorded: inhibitory activities on NO production
Rubianol-e [Compound 44],efficacy of NO production inhibition compared with L-NMMA,[5],equivalent to L-NMMA
same,inhibition of NO production,[5],exhibited the inhibition
Rubiyunnanin B [Compound 93],cytotoxicities against the 11 cancer cell lines,11 cancer cell lines,moderate cytotoxicities
RY-I [Compound 100],activity against NO production in LPS,[3],exhibited activity
